{"source": "paper PMC12592173", "about": "“Targeted degradation of EGFR 19Del by PROTACs suppresses tumor growth in non-small-cell lung cancer” (Frontiers in Pharmacology, 2025)", "key": {"EGFR^Del19": {"biological_target": "EGFR^Del19 (Homo sapiens, UniProt P00533+Q96SW2, DEL746-750)", "test": "Western blot of EGFR degradation in HCC827 cells", "type": "cell-based", "set-up": "host or cells: HCC827", "conditions": "for Degradation activity, in words / EGFR degradation (%): 10 nM; for Degradation activity, in words: HCC827 (EGFR^Del19) cells; for EGFR degradation (%): HCC827, 24 h, average of two independent experiments, NA = not active; for Effect of inhibitor pretreatment on EGFR^Del19 degradation induced by compound 14 / Rescue of EGFR^Del19 reduction induced by compound 12 or 14 (competition): HCC827; for Effect of inhibitor pretreatment on EGFR^Del19 degradation induced by compound 14: 2 μM MG132 or 5 μM MLN4924 for 2 h, then 10 nM of 14 for 8 h; for Rescue of EGFR^Del19 reduction induced by compound 12 or 14 (competition): 2 h pretreatment, 10 nM degrader 4 h", "protocol": "HCC827 and H1975 cell lines were purchased from ATCC (United States) and cultured according to the manuals. Cells were grown in monolayers in appropriate media supplemented with 10% fetal bovine serum and 1% antibiotic/antimycotic solution.\nCells at 70%–90% confluence were lysed in RIPA buffer with complete protease inhibitor cocktail (Roche Applied Science, Penzberg, Germany). Lysates were quantified, separated on SDS-PAGE gels, and transferred onto PVDF membranes, followed by the blockade with 5% milk in TBS+ 0.1% Tween-20 buffer for 1 h at room temperature. The following primary antibodies were used: anti-EGFR (1:50000, ABclonal Technology, Wuhan, China), anti-pEGFR (Tyr1068, […], Cell Signaling Technology, MA, United States), anti-AKT (1:10000, ABclonal Technology, Wuhan, China), anti-pAKT (1:10000, ABclonal Technology, Wuhan, China), and anti-β-actin (1:10000, ABclonal Technology, Wuhan, China). Protein bands were detected using Tanon High-signal ECL Western Blotting Substrate (Tanon Science and Technology Co., Ltd., Shanghai, China). The band density of the protein of interest was quantified using ImageJ."}, "H1299 cells": {"tested_on": "H1299 cells", "test": "Cell viability (CCK-8) in H1299 cells", "type": "cell-based", "conditions": "up to 1 μM, 96 h", "protocol": "(§1) Cells (5 × 10^3 for 48 h or 1 × 10^3 for 96 h) were seeded in 96-well plates, allowed to attach overnight, and then incubated with various concentrations of compounds for 48 h or 96 h. The viability of cells was determined using Cell Counting Kit-8 (CCK-8; Dojindo), and IC50 was calculated using GraphPad Prism (version 6.0). For colony formation assays, cells (1 × 10^3 cells/well) seeded in 24-well plates were treated with different concentrations of compounds and replaced with fresh media with compounds every 4 days. After 7 days, the cells were washed with PBS, fixed with methanol, and stained with 0.1% crystal violet solution."}, "H1975 cells": {"tested_on": "H1975 cells", "test": "Cell viability (CCK-8) in H1975 cells", "type": "cell-based", "conditions": "up to 1 μM, 96 h", "protocol": "as §1"}, "HeLa cells": {"tested_on": "HeLa cells", "test": "Cell viability (CCK-8) in HeLa cells", "type": "cell-based", "conditions": "up to 1 μM, 96 h", "protocol": "as §1"}, "HCC827 cells": {"tested_on": "HCC827 cells", "test": "Cell viability (CCK-8) in HCC827 cells", "type": "cell-based, human", "conditions": "up to 200 nM", "protocol": "as §1, with “The” for “Cells (5 × 10^3 for 48 h or 1 × 10^3 for 96 h) were seeded in 96-well plates, allowed to attach overnight, and then incubated with various concentrations of compounds for 48 h or 96 h. The”"}}, "note": "Where a SMILES comes first, the peptide text is derived from it. The star is where a group is joined. Cbz = O=C(OCc1ccccc1)*", "data": [{"smiles": "O=C1CCC(N2C(=O)c3ccc(OCCCCCOc4cc5ncnc(Nc6ccc(F)c(Cl)c6)c5cc4OCCCN4CCOCC4)cc3C2=O)C(=O)N1", "note": "(stereo not drawn) [Compound 1]", "values": [{"measurement": "Degradation activity, in words", "setting": "EGFR^Del19", "result": "no degradation effect"}, {"measurement": "EGFR degradation (%)", "setting": "EGFR^Del19", "result": "−6.6 ± 4.2", "unit": "%"}]}, {"smiles": "O=C1CCC(N2C(=O)c3ccc(OCCCCCCCCOc4cc5ncnc(Nc6ccc(F)c(Cl)c6)c5cc4OCCCN4CCOCC4)cc3C2=O)C(=O)N1", "note": "(stereo not drawn) [Compound 2]", "values": [{"measurement": "Degradation activity, in words", "setting": "EGFR^Del19", "result": "weak degradation activities"}, {"measurement": "EGFR degradation (%)", "setting": "EGFR^Del19", "result": "15.3 ± 5.9", "unit": "%"}]}, {"smiles": "O=C1CCC(N2C(=O)c3ccc(OCCCCCCCCCCCOc4cc5ncnc(Nc6ccc(F)c(Cl)c6)c5cc4OCCCN4CCOCC4)cc3C2=O)C(=O)N1", "note": "(stereo not drawn) [Compound 3]", "values": [{"measurement": "Degradation activity, in words", "setting": "EGFR^Del19", "result": "weak degradation activities"}, {"measurement": "EGFR degradation (%)", "setting": "EGFR^Del19", "result": "7.0 ± 9.3", "unit": "%"}]}, {"smiles": "O=C1CCC(N2C(=O)c3ccc(N4CCN(C(=O)CCCCCCCOc5cc6ncnc(Nc7ccc(F)c(Cl)c7)c6cc5OCCCN5CCOCC5)CC4)cc3C2=O)C(=O)N1", "note": "(stereo not drawn) [Compound 6]", "values": [{"measurement": "EGFR degradation (%)", "setting": "EGFR^Del19", "result": "15.0 ± 4.0", "unit": "%"}]}, {"smiles": "O=C1CCC(N2C(=O)c3ccc(N4CCN(CCCCCCCCCCOc5cc6ncnc(Nc7ccc(F)c(Cl)c7)c6cc5OCCCN5CCOCC5)CC4)cc3C2=O)C(=O)N1", "note": "(stereo not drawn) [Compound 7]", "values": [{"measurement": "EGFR degradation (%)", "setting": "EGFR^Del19", "result": "19.4 ± 15.1", "unit": "%"}]}, {"smiles": "O=C1CCC(N2C(=O)c3ccc(N4CCN(CCCC(=O)N5CCN(CCCOc6cc7ncnc(Nc8ccc(F)c(Cl)c8)c7cc6OCCCN6CCOCC6)CC5)CC4)cc3C2=O)C(=O)N1", "note": "(stereo not drawn) [Compound 9]", "values": [{"measurement": "EGFR degradation (%)", "setting": "EGFR^Del19", "result": "66.3 ± 22.7", "unit": "%"}]}, {"smiles": "O=C1CCC(N2C(=O)c3ccc(N4CCN(CCCCN5CCN(CCCOc6cc7ncnc(Nc8ccc(F)c(Cl)c8)c7cc6OCCCN6CCOCC6)CC5)CC4)cc3C2=O)C(=O)N1", "note": "(stereo not drawn) [Compound 10]", "values": [{"measurement": "EGFR degradation (%)", "setting": "EGFR^Del19", "result": "32.4 ± 17.1", "unit": "%"}]}, {"smiles": "O=C1CCC(N2C(=O)c3ccc(N4CCN(CCN5CCN(CCOc6cc7ncnc(Nc8ccc(F)c(Cl)c8)c7cc6OCCCN6CCOCC6)CC5)CC4)cc3C2=O)C(=O)N1", "note": "(stereo not drawn) [Compound 11]", "values": [{"measurement": "EGFR degradation (%)", "setting": "EGFR^Del19", "result": "25.1 ± 11.2", "unit": "%"}]}, {"smiles": "O=C1CCC(N2C(=O)c3ccc(N4CCN(CCCN5CCN(CCOc6cc7ncnc(Nc8ccc(F)c(Cl)c8)c7cc6OCCCN6CCOCC6)CC5)CC4)cc3C2=O)C(=O)N1", "note": "(stereo not drawn) [Compound 13]", "values": [{"measurement": "EGFR degradation (%)", "setting": "EGFR^Del19", "result": "16.8 ± 10.5", "unit": "%"}]}, {"smiles": "COc1cc2c(Nc3ccc(F)c(Cl)c3)ncnc2cc1OCCCN1CCN(CCN2CCN(c3ccc4c(c3)C(=O)N(C3CCC(=O)N(C)C3=O)C4=O)CC2)CC1", "note": "(stereo not drawn) [Compound 15]", "values": [{"measurement": "Degradation activity, in words", "setting": "EGFR^Del19", "result": "completely lost its degradation ability"}]}, {"smiles": "CC(C)C[C@@H](C=O)NC(=O)[C@H](CC(C)C)NC(=O)[C@H](CC(C)C)NC(=O)OCc1ccccc1", "note": "[MG132, reference compound] (Cbz-Leu-Leu-Leu-aldehyde)", "values": [{"measurement": "Effect of inhibitor pretreatment on EGFR^Del19 degradation induced by compound 14", "setting": "EGFR^Del19", "result": "restored"}]}, {"smiles": "NS(=O)(=O)OC[C@@H]1C[C@@H](n2ccc3c(N[C@H]4CCc5ccccc54)ncnc32)C[C@@H]1O", "note": "[MLN4924, reference compound]", "values": [{"measurement": "Effect of inhibitor pretreatment on EGFR^Del19 degradation induced by compound 14", "setting": "EGFR^Del19", "result": "restored"}]}, {"smiles": "COc1cc2ncnc(Nc3ccc(F)c(Cl)c3)c2cc1OCCCN1CCOCC1", "note": "[gefitinib, reference compound]", "values": [{"measurement": "Effect on viability", "setting": "H1299 cells", "result": "did not affect the viability"}, {"measurement": "Effect on viability", "setting": "H1975 cells", "result": "did not affect the viability"}, {"measurement": "Effect on viability", "setting": "HeLa cells", "result": "did not affect the viability"}]}, {"smiles": "O=C1CCC(N2C(=O)c3ccccc3C2=O)C(=O)N1", "note": "(stereo not drawn) [thalidomide, reference compound]", "values": [{"measurement": "Rescue of EGFR^Del19 reduction induced by compound 12 or 14 (competition)", "setting": "EGFR^Del19; 100 times the degrader dose (1 μM)", "result": "slight decrease in EGFR^Del19 was still observed"}, {"measurement": "Rescue of EGFR^Del19 reduction induced by compound 12 or 14 (competition)", "setting": "EGFR^Del19; 500 times the degrader dose (5 μM)", "result": "completely rescue"}, {"measurement": "Influence on viability of HCC827 cells", "setting": "HCC827 cells", "result": "no influence"}]}]}
